Laboratory results published in PMC9570413, “A New Phospholipase D from Moritella sp. JT01: Biochemical Characterization, Crystallization and Application in the Synthesis of Phosphatidic Acid” (International Journal of Molecular Sciences, 2022).

Target: T1, MsPLD (phospholipase D from Moritella sp. JT01) (Moritella sp. JT01, UniProt A0A137SLD1)
T1 construct: gene AKG98_3441; precursor 578 residues; C-terminal 6xHis (pET-21a); E. coli SHuffle T7; about 62 kDa
T1 sequence (A0A137SLD1 29-578): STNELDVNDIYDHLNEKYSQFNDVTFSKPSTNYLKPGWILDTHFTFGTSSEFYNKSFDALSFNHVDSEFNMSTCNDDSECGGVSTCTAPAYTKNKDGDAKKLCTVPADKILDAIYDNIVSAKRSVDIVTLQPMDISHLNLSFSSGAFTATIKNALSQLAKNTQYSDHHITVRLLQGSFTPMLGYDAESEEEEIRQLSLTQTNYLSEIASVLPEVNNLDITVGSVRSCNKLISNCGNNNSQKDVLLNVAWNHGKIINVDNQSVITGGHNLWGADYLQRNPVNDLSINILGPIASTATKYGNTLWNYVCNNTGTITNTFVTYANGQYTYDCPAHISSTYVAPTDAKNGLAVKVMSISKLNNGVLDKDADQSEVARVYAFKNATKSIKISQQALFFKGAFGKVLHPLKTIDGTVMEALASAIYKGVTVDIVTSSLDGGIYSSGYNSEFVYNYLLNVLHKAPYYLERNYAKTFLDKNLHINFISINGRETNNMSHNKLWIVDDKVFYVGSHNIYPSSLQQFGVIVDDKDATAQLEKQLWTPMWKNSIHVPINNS
Assay: enzyme-linked colorimetry (choline oxidase/peroxidase), Michaelis-Menten
Assay type: biochemical
Conditions: 0.1 M Tris-HCl pH 8.0, 35 °C, SDS and Triton X-100 in assay mixture; 0.5-8.0 mM PC; natural soybean PC, acyl chains not defined (class of species, no single structure)
Method: enzyme-linked colorimetry (choline oxidase/peroxidase), Michaelis-Menten on MsPLD (phospholipase D from Moritella sp. JT01) | the kinetic parameters of MsPLD to soy PC were determined

With L-α-phosphatidylcholine from soybean the Km was 3.44 ± 0.81 mM.
